Reference: the kinase profiling compilation of Christmann-Franck et al. (2016)

How the values were obtained:
Assay in all cases: KINOMEscan competition binding
Conditions in all cases: compound 1.0 µM
MTOR (human) = MTOR (human) (UniProt P42345)
PIM1 (human) = PIM1 (human) (UniProt P11309)
MARK4 (human) = MARK4 (human) (UniProt Q96L34)
TNNI3K (human) = TNNI3K (human) (UniProt Q59H18)
CDK19 (human) = CDK19 (human) (UniProt Q9BWU1)
NEK1 (human) = NEK1 (human) (UniProt Q96PY6)
STK38L (human) = STK38L (human) (UniProt Q9Y2H1)
CDK9 (human) = CDK9 (human) (UniProt P50750)
MAP3K4 (human) = MAP3K4 (human) (UniProt Q9Y6R4)
PTK2B (human) = PTK2B (human) (UniProt Q14289)
LIMK2 (human) = LIMK2 (human) (UniProt P53671)
[1] = test system: FLT3 (human), P36888 [R834Q]
[2] = molecular target: JAK2 JH1 catalytic (human) (UniProt O60674)
MAP4K2 (human) = MAP4K2 (human) (UniProt Q12851)
PRKAA2 (human) = PRKAA2 (human) (UniProt P54646)
MAP2K2 (human) = MAP2K2 (human) (UniProt P36507)
PAK6 (human) = PAK6 (human) (UniProt Q9NQU5)
MAPK14 (human) = MAPK14 (human) (UniProt Q16539)
[3] = test system: KIT (human), P10721 [V559D]
CSNK1D (human) = CSNK1D (human) (UniProt P48730)
[4] = test system: KIT (human), P10721 [D816V]
[5] = test system: PIK3CA (human), P42336 [M1043I]
CAMK4 (human) = CAMK4 (human) (UniProt Q16566)
PAK3 (human) = PAK3 (human) (UniProt O75914)
VRK2 (human) = VRK2 (human) (UniProt Q86Y07)
MYO3A (human) = MYO3A (human) (UniProt Q8NEV4)
PIK3C2B (human) = PIK3C2B (human) (UniProt O00750)
MAP2K7 (human) = MAP2K7 (human) (UniProt O14733)
SGK110 (human) = SGK110 (human) (UniProt P0C264)
CDK15 (human) = CDK15 (human) (UniProt Q96Q40)
AURKA (human) = AURKA (human) (UniProt O14965)
[6] = molecular target: JAK1 JH1 catalytic (human) (UniProt P23458)
MAPK13 (human) = MAPK13 (human) (UniProt O15264)
IKBKE (human) = IKBKE (human) (UniProt Q14164)
MAP2K6 (human) = MAP2K6 (human) (UniProt P52564)
[7] = test system: EGFR (human), P00533 [A750P; 747-749 del]
MYLK4 (human) = MYLK4 (human) (UniProt Q86YV6)
MLTK (human) = MLTK (human) (UniProt Q9NYL2)
INSRR (human) = INSRR (human) (UniProt P14616)
Chain of INSRR (human) (P14616 whole entry, looked up): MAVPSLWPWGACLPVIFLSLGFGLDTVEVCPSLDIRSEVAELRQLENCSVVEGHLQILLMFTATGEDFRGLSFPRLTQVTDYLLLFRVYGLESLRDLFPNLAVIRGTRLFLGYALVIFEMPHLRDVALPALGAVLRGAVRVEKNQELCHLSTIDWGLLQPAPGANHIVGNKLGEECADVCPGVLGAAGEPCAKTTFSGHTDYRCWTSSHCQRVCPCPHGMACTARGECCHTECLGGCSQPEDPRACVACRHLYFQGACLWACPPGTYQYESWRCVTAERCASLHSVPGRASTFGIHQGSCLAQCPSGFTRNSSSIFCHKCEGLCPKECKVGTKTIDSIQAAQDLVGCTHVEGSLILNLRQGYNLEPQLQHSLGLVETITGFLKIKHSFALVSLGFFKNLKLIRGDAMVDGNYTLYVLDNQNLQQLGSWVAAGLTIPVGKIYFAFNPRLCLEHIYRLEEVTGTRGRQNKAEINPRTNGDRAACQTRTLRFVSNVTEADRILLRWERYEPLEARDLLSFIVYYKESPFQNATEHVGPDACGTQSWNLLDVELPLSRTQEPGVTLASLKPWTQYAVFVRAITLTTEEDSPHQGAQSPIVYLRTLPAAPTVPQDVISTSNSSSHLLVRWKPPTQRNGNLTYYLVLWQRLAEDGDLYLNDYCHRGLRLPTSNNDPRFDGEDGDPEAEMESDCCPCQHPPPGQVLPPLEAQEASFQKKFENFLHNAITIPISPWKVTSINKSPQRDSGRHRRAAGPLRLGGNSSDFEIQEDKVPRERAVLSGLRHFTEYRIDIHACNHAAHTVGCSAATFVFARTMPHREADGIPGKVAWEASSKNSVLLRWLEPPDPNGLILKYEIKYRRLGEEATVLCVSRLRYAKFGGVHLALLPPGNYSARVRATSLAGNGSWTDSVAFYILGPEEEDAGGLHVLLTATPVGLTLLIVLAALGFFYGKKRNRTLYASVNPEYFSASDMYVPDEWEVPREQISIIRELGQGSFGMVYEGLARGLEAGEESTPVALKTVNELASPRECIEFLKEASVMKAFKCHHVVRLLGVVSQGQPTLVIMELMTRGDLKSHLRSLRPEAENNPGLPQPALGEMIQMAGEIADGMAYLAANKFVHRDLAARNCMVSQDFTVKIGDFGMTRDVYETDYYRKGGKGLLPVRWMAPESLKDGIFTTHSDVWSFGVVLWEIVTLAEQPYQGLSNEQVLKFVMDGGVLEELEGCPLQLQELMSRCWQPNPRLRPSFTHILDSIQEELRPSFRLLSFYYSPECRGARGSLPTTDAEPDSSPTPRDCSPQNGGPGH

Chain of CDK19 (human) (Q9BWU1 whole entry, looked up): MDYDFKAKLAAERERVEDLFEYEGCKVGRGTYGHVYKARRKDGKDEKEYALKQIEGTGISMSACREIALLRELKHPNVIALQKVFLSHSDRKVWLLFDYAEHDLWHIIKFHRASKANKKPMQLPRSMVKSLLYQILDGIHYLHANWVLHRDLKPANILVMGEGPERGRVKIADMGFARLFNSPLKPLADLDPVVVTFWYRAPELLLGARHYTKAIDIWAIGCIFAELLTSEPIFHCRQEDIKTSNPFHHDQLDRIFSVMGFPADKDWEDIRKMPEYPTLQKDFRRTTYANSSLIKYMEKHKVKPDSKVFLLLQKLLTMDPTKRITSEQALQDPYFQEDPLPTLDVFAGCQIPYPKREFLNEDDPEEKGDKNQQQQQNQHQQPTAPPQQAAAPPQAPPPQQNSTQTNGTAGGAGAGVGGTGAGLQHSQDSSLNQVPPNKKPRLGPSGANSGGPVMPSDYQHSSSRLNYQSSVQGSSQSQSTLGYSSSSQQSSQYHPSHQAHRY
Chain of PIK3C2B (human) (O00750 whole entry, looked up): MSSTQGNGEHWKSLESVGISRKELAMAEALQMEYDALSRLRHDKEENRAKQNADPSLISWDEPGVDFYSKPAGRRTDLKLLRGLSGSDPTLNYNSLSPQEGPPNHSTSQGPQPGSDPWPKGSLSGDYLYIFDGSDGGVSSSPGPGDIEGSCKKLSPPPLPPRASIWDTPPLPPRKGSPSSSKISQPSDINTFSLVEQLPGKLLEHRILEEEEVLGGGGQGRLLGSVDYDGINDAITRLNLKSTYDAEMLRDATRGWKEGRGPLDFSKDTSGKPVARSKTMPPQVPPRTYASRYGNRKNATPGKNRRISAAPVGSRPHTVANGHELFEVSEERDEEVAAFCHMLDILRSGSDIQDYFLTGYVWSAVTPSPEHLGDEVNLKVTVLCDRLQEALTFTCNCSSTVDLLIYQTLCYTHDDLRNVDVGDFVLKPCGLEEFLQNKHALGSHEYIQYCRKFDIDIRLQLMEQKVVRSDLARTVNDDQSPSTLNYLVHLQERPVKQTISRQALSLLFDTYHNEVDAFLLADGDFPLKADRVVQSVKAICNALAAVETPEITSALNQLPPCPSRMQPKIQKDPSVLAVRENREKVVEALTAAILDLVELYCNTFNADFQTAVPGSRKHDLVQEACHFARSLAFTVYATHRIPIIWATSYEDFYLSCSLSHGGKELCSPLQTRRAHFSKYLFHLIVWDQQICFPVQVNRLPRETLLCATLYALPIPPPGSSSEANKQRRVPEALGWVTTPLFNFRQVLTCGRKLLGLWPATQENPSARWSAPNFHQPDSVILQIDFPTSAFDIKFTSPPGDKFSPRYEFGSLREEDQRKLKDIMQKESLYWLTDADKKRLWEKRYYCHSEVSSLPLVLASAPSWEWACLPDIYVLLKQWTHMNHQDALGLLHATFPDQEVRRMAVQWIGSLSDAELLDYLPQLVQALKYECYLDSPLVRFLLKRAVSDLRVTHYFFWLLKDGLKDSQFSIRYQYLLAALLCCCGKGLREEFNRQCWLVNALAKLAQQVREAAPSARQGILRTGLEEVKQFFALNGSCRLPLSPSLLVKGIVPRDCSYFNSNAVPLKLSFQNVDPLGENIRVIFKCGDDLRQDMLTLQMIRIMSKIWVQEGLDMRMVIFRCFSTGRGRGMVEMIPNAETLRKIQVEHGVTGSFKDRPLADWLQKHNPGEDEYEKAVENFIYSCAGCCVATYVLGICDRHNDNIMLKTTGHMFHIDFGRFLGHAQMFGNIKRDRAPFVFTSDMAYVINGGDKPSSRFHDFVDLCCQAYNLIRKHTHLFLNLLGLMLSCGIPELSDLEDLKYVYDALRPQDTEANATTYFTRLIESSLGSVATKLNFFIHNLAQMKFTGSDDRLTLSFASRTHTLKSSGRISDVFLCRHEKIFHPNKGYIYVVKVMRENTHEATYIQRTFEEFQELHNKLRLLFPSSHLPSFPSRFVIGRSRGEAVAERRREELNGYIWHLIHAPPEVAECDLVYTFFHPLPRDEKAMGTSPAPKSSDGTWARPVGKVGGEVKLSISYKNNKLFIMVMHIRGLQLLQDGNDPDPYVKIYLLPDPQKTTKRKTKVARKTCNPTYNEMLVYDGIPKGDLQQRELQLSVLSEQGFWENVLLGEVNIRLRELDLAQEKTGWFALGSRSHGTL
Chain of AURKA (human) (O14965 whole entry, looked up): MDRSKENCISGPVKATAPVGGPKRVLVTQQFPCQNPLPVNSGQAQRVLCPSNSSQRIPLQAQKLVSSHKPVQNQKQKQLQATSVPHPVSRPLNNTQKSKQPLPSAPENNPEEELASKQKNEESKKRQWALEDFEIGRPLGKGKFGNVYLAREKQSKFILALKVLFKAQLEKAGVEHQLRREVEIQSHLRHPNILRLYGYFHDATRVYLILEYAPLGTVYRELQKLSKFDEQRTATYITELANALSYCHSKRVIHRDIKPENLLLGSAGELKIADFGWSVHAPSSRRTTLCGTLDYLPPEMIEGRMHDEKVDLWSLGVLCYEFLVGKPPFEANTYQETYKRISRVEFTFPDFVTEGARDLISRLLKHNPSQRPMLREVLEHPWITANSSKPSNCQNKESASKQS
Chain of MAPK13 (human) (O15264 whole entry, looked up): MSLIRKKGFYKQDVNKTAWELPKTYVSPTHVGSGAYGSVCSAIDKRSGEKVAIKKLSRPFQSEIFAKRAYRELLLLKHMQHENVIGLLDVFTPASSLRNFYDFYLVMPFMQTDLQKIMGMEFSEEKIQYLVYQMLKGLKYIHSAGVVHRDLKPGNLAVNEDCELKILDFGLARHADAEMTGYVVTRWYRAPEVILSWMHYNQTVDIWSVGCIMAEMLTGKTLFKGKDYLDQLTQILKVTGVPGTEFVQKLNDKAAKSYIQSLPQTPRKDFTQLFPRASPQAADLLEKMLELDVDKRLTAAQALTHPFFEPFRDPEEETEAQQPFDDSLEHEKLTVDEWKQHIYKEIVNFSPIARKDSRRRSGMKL
Chain of MYLK4 (human) (Q86YV6 whole entry, looked up): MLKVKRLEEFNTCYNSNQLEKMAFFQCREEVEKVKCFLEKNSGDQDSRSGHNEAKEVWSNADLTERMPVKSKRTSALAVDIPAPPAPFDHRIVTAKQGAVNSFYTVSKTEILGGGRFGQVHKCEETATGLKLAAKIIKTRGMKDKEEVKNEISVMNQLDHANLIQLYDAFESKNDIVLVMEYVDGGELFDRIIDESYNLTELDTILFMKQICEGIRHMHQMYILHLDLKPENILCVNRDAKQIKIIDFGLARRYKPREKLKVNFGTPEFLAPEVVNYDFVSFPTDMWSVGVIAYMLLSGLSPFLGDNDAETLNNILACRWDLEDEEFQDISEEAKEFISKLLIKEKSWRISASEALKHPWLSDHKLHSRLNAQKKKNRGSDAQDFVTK
Chain of MAP2K6 (human) (P52564 whole entry, looked up): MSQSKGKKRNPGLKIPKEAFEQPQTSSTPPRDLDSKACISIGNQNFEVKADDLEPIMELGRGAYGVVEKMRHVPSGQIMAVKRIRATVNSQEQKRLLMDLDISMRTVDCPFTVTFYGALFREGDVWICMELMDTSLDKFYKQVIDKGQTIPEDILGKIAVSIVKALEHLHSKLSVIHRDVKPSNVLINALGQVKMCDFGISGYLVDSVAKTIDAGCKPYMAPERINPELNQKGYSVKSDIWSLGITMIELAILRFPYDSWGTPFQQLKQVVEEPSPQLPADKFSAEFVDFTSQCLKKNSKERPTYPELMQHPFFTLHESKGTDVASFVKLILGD

Question: Which kinase still bound, per cent of control (MTOR (human)) does the source give for `CNc1nc(Nc2ccc(C(=O)N3CCOCC3)cc2OC)ncc1Cl` here?
Answer: 100%

Question: What about the kinase still bound, per cent of control (PIM1 (human)) of the same compound?
Answer: 100%

Question: What about the kinase still bound, per cent of control (MARK4 (human)) of the same compound?
Answer: 45%

Question: What about the kinase still bound, per cent of control (TNNI3K (human)) of the same compound?
Answer: 54%

Question: What about the residual activity (CDK19 (human)) of the same compound?
Answer: 100%

Question: And the kinase still bound, per cent of control (NEK1 (human))?
Answer: 91%

Question: What about the kinase still bound, per cent of control (STK38L (human)) of the same compound?
Answer: 86%

Question: And the residual activity (CDK9 (human))?
Answer: 100%

Question: And the kinase still bound, per cent of control (MAP3K4 (human))?
Answer: 100%

Question: And the kinase still bound, per cent of control (PTK2B (human))?
Answer: 82%

Question: And the kinase still bound, per cent of control (LIMK2 (human))?
Answer: 100%

Question: And the kinase still bound, per cent of control [1]?
Answer: 100%

Question: What about the kinase still bound, per cent of control [2] of the same compound?
Answer: 100%

Question: And the kinase still bound, per cent of control (MAP4K2 (human))?
Answer: 100%

Question: And the kinase still bound, per cent of control (PRKAA2 (human))?
Answer: 93%

Question: And the kinase still bound, per cent of control (MAP2K2 (human))?
Answer: 84%

Question: What about the kinase still bound, per cent of control (PAK6 (human)) of the same compound?
Answer: 100%

Question: And the kinase still bound, per cent of control (MAPK14 (human))?
Answer: 100%

Question: And the kinase still bound, per cent of control [3]?
Answer: 18%

Question: And the residual activity (CSNK1D (human))?
Answer: 100%

Question: What about the kinase still bound, per cent of control [4] of the same compound?
Answer: 98%

Question: And the kinase still bound, per cent of control [5]?
Answer: 93%

Question: And the kinase still bound, per cent of control (CAMK4 (human))?
Answer: 100%

Question: And the kinase still bound, per cent of control (PAK3 (human))?
Answer: 88%

Question: What about the kinase still bound, per cent of control (VRK2 (human)) of the same compound?
Answer: 95%

Question: What about the kinase still bound, per cent of control (MYO3A (human)) of the same compound?
Answer: 63%

Question: What about the kinase still bound, per cent of control (PIK3C2B (human)) of the same compound?
Answer: 96%

Question: What about the kinase still bound, per cent of control (MAP2K7 (human)) of the same compound?
Answer: 100%

Question: What about the kinase still bound, per cent of control (SGK110 (human)) of the same compound?
Answer: 100%

Question: What about the residual activity (CDK15 (human)) of the same compound?
Answer: 84%

Question: And the kinase still bound, per cent of control (AURKA (human))?
Answer: 96%

Question: And the kinase still bound, per cent of control [6]?
Answer: 82%

Question: What about the kinase still bound, per cent of control (MAPK13 (human)) of the same compound?
Answer: 94%

Question: What about the kinase still bound, per cent of control (IKBKE (human)) of the same compound?
Answer: 86%

Question: And the kinase still bound, per cent of control (MAP2K6 (human))?
Answer: 100%

Question: And the kinase still bound, per cent of control [7]?
Answer: 100%

Question: What about the kinase still bound, per cent of control (MYLK4 (human)) of the same compound?
Answer: 100%

Question: And the kinase still bound, per cent of control (MLTK (human))?
Answer: 100%

Question: What about the kinase still bound, per cent of control (INSRR (human)) of the same compound?
Answer: 90%
